# Biological target: T1, budding yeast cohesin tetramer (Smc1, Smc3, Scc1/Mcd1, Scc3) with Scc2-Scc4 loader complex (Saccharomyces cerevisiae, UniProt P32908+P47037)
# T1 construct: tetramer overexpressed in S. cerevisiae W303-1a; Smc1-3xStrepII, Mcd1-8xHis-3xHA; loader Scc2-3xmyc-3xStrepII with Scc4; tags kept; with Sister chromatid cohesion protein 1; Cohesin subunit SCC3; Sister chromatid cohesion protein 2; MAU2 chromatid cohesion factor homolog
# Test: [gamma-32P]ATP hydrolysis, thin-layer chromatography
# Format: biochemical
# Settings: 30 nM cohesin, 60 nM Scc2/4, 0.2 nM lambda-DNA, 400 uM ATP, 0.5 mM MgCl2, 20 mM NaCl, pH 7.0, 29 C; labelled compound
compound,measurement,value
Nc1ncnc2c1ncn2[C@@H]1O[C@H](COP(=O)(O)OP(=O)(O)OP(=O)(O)O)[C@@H](O)[C@H]1O [ATP],"[gamma-32P]ATP hydrolysis, thin-layer chromatography",our purified Scc2-Scc4 complex was able to stimulate cohesin ATPase activity

# Source: publication PMC6881171, “A conserved ATP- and Scc2/4-dependent activity for cohesin in tethering DNA molecules” (Science Advances, 2019)
